Patent US10940188B2, “Compounds and methods for treatment and prevention of Flavivirus infection” (priority 2016, dated 2021)

Columns and labels:
HEK293 cells = experiment: Toxicity IC50 (cell-killing activity) of the NS1 TR-FRET screen; type: cell-based, human; conditions: cell-killing activity
ZIKV MR766 NS1 = experiment: microbe, parasite or virus in culture; type: cell-based, Zika virus; conditions: Zika virus, HEK293, 48 h, read-out: NS1-IC50
Procedure: A one-step NS1 TR-FRET (Time-resolved fluorescence resonance energy transfer) assay for a screen of anti-ZIKV compounds was carried out. Human embryonic kidney cell line HEK293 cells were seeded into 384-well plates and infected with ZIKV MR766 at a MOI of 0.5 for 2 days. The FRET assay was performed with two clones of anti-NS1 antibody (ab) differentially labelled with donor and acceptor fluorophores.

activated caspases = conditions: in vitro; cited from earlier work
[1] = system: forebrain-specific hNPCs infected by FSS13025; experiment: Immunostaining of ZIKV-infected forebrain-specific hNPCs (monolayer) for cleaved caspase-3 and ZIKVE; type: cell-based, human
From the text: FIGS. 1A-1, 1A-2, 1A-3, 1B-1, 1B-2, 1C-1, and 1C-2. Emricasan suppresses cell death of ZIKV-infected human astrocytes and hNPCs in 2D monolayer cultures and 3D brain organoids. Emricasan (FIG. 1A-1) inhibits caspase-3 activity and improves cell viability in human astrocytes infected with three different strains of ZIKV in a concentration dependent manner. Value represent mean±s.d. (n=3). The curves (FIGS. 1A-2 and 1A-3) represent best fit. (FIG. 1B) Sample images of immunostaining (FIG. 1B-1) of forebrain-specific hNPCs for ZIKV envelop protein (ZIKVE; green) and cleaved-caspase 3 (Cas3; red) and DAPI (gray) 72 hours after ZIKV FSS-13025 infection (MOI=0.04-0.08; Scale bar: 20 μm), and quantification (FIG. 1B-2). Values represent mean±s.e.m. (n=3; **P<0.01; Student's t-test). Sample images (FIG. 1C-1) of immunostaining of day 28 human forebrain-specific organoids for ZIKVE (green) and Cas3 (red) and DAPI (gray) 10 days after ZIKV FSS-13025 infection (Scale bar: 100 μm), and quantification (FIG. 1C-2). Values represent mean±s.e.m. (n=6; ***P<0.001; Student's t-test).
Cells were fixed with 4% paraformaldehyde (Sigma) for 15 min at room temperature. Samples were permeabilized and blocked with 0.25% Triton X-100 (Sigma) and 10% donkey or goat serum in PBS for 20 min as previously described (Chiang et al., 2011; [41]; Yoon et al., 2014). […]

[2] = oral, BID, ×4 days, cited from earlier work
[3] = system: hNPCs infected with ZIKV PRVABC59; experiment: hNPC proliferation after ZIKV infection (EdU); type: cell-based, human; conditions: PHA-690509 1 μM, Seliciclib 5 μM
Procedure: (§1) FIGS. 17A-17C. Analysis of potential toxicity of CDKis on human astrocyte viability and hNPC proliferation. Human iPSC-derived astrocytes (BJ line) were treated with each indicated compound (cpd) for 25 hours prior to cell viability analysis as measured in relative luciferase units for ATP production. Values represent mean+s.d. (n=3 cultures; ***P<0.001; **P<0.01; One-way ANOVA for comparison with the DMSO treatment). RLU: relative luminescence units. hNPCs were treated with saline, PHA-690509 (PHA, 1 μM) or Seliciclib (5 μM), 1 hour prior to ZIKV PRVABC59 infection (MOI=0.08). At 72 hours post infection, EdU (10 μM) was added to hNPCs and cells were cultured for additional 4 hours prior to fixation and staining for EdU and DAPI. Values represent mean+s.e.m. (n=3 cultures; ***P<0.001; One-way ANOVA for comparison with the mock treatment). Day 20 forebrain-specific brain organoids were treated with PHA-690509 (1 μM) or Seliciclib (5 μM) for 3 days and hNPC proliferation was evaluated by phospho-Histone 3 (PH3) expression within the ventricular zone. Values represent mean+s.e.m. (n=8 organoids; P>0.05; One-way ANOVA for comparison with the mock treatment).

[4] = system: forebrain-specific brain organoids; experiment: hNPC proliferation in forebrain organoids (phospho-Histone 3), compound alone; type: cell-based, human; conditions: 3 days
Procedure: as §1

CC[C@H]1CN2CCc3cc(OC)c(OC)cc3[C@@H]2C[C@@H]1C[C@H]1NCCc2cc(OC)c(OC)cc21 [Emetine]
Tox IC50 (HEK293 cells): No
IC50 (ZIKV MR766 NS1): 114 nM

C[C@H](NC(=O)C(=O)Nc1ccccc1C(C)(C)C)C(=O)N[C@@H](CC(=O)O)C(=O)COc1c(F)c(F)cc(F)c1F [Emricasan]
activity against activated caspases (activated caspases): sub- to nano-molar activity
number of cleaved caspase-3-expressing hNPCs, monolayer ([1]; FSS13025 infection, 72 hours): reduced the number of active (cleaved) caspase-3-expressing forebrain-specific hNPCs
suppression of ZIKV replication (ZIKV antigen in 2D and 3D cultures) ([1]; after Emricasan treatment): does not suppress ZIKV replication
maximum (Cmax) concentration in human blood [2]: 2360 ng/mL
Cmax ([2]; read-out: maximum (Cmax) concentration in human blood, value in brackets): 4.15 µM

CC(=O)Nc1ccc([C@H](C)C(=O)Nc2ncc(C(C)C)s2)cc1 [PHA-690509]
rescue of ZIKV-induced reduction of hNPC proliferation [3]: partially rescued ZIKV-induced reduction of hNPC proliferation
effect of the treatment itself on hNPC proliferation [4]: minimal effect on hNPC proliferation in brain organoids
